# Values of other authors in patent US12029733B2, “Treatment of sepsis and related inflammatory conditions by local neuromodulation of the autonomic nervous system” (Tulavi Therapeutics, Inc., priority 2016, dated 2024).
# Tests used:
# [1] = biological target: FFA1 (Homo sapiens, UniProt O14842); conditions: marked *: FFA1 ERK activation (Smith et al. 2009) / aequorin reporter Ca2+ signaling (Kotarsky et al. 2003)
# [2] = biological target: T1, GPR120 (Homo sapiens, UniProt Q5NUL3); conditions: fluorescent indicator measurement of Ca2+ mobilization
# T1 sequence (Q5NUL3 1-361): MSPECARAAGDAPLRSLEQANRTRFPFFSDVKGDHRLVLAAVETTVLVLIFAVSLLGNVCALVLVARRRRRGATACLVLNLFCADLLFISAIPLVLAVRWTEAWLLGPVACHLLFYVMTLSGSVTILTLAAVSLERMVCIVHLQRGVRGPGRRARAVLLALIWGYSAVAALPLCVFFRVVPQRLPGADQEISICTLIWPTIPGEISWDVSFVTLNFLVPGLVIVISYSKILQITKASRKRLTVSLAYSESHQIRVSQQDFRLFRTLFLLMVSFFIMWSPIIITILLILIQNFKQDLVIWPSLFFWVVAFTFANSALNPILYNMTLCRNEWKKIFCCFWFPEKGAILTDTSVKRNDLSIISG
# [3] = biological target: T2, KCC2 (Homo sapiens, UniProt Q9H2X9)
# T2 sequence (Q9H2X9 1-1139): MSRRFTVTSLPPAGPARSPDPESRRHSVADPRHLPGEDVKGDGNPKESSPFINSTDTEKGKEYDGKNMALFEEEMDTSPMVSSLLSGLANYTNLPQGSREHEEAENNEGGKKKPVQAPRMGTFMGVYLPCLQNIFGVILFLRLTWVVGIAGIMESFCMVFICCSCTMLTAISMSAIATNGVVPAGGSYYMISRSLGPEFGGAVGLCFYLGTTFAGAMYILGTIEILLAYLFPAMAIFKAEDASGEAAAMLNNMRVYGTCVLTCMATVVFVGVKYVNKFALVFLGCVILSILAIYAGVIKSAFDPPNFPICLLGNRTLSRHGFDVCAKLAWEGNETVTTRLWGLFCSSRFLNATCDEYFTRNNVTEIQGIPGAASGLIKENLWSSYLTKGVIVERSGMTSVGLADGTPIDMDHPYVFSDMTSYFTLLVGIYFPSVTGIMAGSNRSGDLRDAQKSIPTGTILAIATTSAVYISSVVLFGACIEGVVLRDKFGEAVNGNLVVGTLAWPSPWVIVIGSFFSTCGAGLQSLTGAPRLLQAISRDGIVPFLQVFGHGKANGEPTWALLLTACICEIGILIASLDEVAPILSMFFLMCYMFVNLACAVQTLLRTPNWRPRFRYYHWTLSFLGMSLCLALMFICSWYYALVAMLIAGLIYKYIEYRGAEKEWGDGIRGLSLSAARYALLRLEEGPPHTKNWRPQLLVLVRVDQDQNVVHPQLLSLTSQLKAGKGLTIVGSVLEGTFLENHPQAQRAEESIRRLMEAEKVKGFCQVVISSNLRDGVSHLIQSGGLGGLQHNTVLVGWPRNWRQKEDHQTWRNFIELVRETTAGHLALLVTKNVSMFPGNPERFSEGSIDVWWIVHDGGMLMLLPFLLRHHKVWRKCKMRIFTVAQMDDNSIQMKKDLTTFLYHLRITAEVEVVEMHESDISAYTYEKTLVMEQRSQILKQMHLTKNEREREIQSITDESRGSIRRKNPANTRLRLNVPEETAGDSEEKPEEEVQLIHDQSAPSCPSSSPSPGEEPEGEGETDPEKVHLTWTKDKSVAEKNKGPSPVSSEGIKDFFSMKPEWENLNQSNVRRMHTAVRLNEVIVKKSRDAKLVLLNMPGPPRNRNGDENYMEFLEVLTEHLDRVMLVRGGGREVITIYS
# [4] = in vivo
# Chain of FFA1 (O14842 whole entry): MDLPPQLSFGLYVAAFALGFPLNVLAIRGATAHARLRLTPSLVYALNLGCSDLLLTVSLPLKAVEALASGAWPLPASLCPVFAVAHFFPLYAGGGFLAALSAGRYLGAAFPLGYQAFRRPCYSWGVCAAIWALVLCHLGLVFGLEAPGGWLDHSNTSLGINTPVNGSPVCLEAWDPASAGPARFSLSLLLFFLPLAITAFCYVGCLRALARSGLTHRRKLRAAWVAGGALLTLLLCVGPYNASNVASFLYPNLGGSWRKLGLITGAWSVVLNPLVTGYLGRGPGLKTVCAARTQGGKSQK
FFA1 pEC50 [1],GPR120 pEC50 [2],Structure (SMILES),further results
5.5-5.9*,<5.0,CC(C)(CCCCCCCCCCC(C)(C)CC(=O)O)CC(=O)O [MEDICA16],–
–,4.3,"CCCCCCCCCCCCCCCC(=O)O [Palmitic Acid (C16:0), Palmitic Acid]",–
5.0-5.6*,–,CN(CCOc1ccc(CC2SC(=O)NC2=O)cc1)c1ccccn1 (stereo not shown) [Rosiglitazone],–
–,–,Cc1csc(NC(=O)CSc2ccc(-c3ccccc3)nn2)n1 [VU0240551],selectivity KCC2 over NKCC1 [3]: selective for KCC2 over NKCC1
–,–,N=C(N)NC(=O)c1cnn(-c2cccc3ncccc23)c1C1CC1 [Zoniporide],neurotoxic effects [4]: causes peripheral sensory axonopathy

Structure (SMILES),FFA1 pEC50 [1],GPR120 pEC50 [2],further results
"CCCCCCCC/C=C\CCCCCCCC(=O)O [Oleic acid (C18:l), Oleic acid]",–,4.5,–
